What was measured:
BTK [1] = target: T1, BTK (Mus musculus, UniProt P35991); experiment: BTK occupancy in spleen in mouse RPA and PCA models; assay type: in vivo; details: mouse RPA, 5 h after dosing
T1 construct: from tissue; host or cells: mouse spleen
Description: (§1) The in vivo PD effects of an irreversible BTK inhibitor like compound (I) are determined by the extent and duration of covalent BTK occupancy by the inhibitor. BTK occupancy after treatment with Compound of Formula (I) (also referenced to as Compound (I)) was measured in an ex vivo immunoassay. The fraction of unoccupied BTK protein was assayed after in vitro incubation with a covalent biotinylated BTK probe, since compound (I) and the probe bind to BTK in a mutually exclusive manner. Unoccupied BTK, as well as total BTK relative protein levels were determined in lysates of selected tissues and levels of unoccupied BTK were normalized to total BTK protein levels in the same samples.
(§2) Oral treatment with compound (I) at a single dose of 3, 10, 30 and 100 mg/kg, given 2 hours prior to induction of the RPA response, reduced skin swelling in a dose-related manner. […] (FIG. 2)
The effects of compound (I) on acute skin hypersensitivity were also assessed after two oral doses of compound (I) in the mouse of model of passive cutaneous anaphylaxis (PCA) (Ovary 1958). The mouse PCA model was used at a low dose of sensitizing IgE antibody to minimize complement-dependent anaphylatoxins (Schafer et al. 2013, The journal of allergy and clinical immunology, 131(2), pp. 541; Hata et al. 1998, Journal of Experimental Medicine, 187(8), pp. 1235). […] (FIG. 3). Spleen occupancy at 2.5 hours post last dose ranged from 89.1 to 99.7% (representing peak occupancy) (FIG. 4).

[2] = test system: mast cell FcγRIII-mediated inflammation; experiment: Reverse passive Arthus (RPA) model, skin swelling; assay type: in vivo; details: mouse RPA
Description: The duration of the PD effect in skin after single dose was assessed in the reverse passive Arthus (RPA) model of mast cell FcγRIII—mediated inflammation. In this RPA model, a polyclonal IgG antibody is injected locally into the dermis, while the soluble antigen is given systemically by i.v. injection. In this mouse model, mast cell FcγRIII has a dominant role with only minor contributions by the complement system (Hazenbos et al. 1998, journal of immunology, 161(6), pp. 3026; Hazenbos et al., Immunity, 1996, 5(2), pp. 181; Köhl & Gessner 1999, Molecular immunology, 36(13-14), pp. 893; Sylvestre & Ravetch 1996, Immunity, 5(4), pp. 387; Sylvestre & Ravetch 1994, Science, 265(5175), pp. 1095). It has been shown that genetic BTK deficient mice are protected in the passive Arthus skin reaction (Fiedler et al. 2011, blood, 117(4), pp. 1329).
as §2
In this model, the inhibition of skin swelling was maximal when compound (I) was dosed 2 hours prior to eliciting the Arthus reaction. The effect diminished gradually and reached baseline when the Arthus reaction was triggered 45 hours or later after compound (I) dosing.

[3] = test system: allergen response (wheal size); experiment: Skin prick test (SPT) in healthy atopic subjects; assay type: in vivo, human; details: 10 mg q.d.
Description: The ability of compound (I) to inhibit a defined allergen response has been evaluated by means of the skin prick test (SPT) in healthy atopic subjects in the MAD study part of the first in human study. SPT was performed prior to dosing (at screening, baseline and pre-dose on Day 1) and at different time points after the first dose (Day 1) and after 11 days of once daily dosing (Day 12).

BTK [4] = target: T2, BTK (Rattus norvegicus, UniProt Q5S255); experiment: BTK occupancy ex vivo immunoassay in rat tissues after oral dosing
T2 construct: Unoccupied BTK, as well as total BTK relative protein levels were determined in lysates of selected tissues; from tissue; host or cells: rat spleen, blood, lymph nodes, lung
Description: as §1
From the experimental data it was apparent that a short transient systemic exposure of compound (I) is sufficient to achieve full BTK occupancy in several tissues at low oral doses of 1-3 mg/kg. […] This very low and transient systemic exposure is consistent with the PK/PD model typical of irreversible inhibitors.
The duration of BTK occupancy was determined in rats and mice after single oral dose of compound (I) for spleen, blood, lymph nodes and lung. […] The longer persistence of BTK occupancy in blood has been reported before (Advani et al 2013, J Clin Onc; 31(1):88-94).

T2 sequence (Q5S255 1-660): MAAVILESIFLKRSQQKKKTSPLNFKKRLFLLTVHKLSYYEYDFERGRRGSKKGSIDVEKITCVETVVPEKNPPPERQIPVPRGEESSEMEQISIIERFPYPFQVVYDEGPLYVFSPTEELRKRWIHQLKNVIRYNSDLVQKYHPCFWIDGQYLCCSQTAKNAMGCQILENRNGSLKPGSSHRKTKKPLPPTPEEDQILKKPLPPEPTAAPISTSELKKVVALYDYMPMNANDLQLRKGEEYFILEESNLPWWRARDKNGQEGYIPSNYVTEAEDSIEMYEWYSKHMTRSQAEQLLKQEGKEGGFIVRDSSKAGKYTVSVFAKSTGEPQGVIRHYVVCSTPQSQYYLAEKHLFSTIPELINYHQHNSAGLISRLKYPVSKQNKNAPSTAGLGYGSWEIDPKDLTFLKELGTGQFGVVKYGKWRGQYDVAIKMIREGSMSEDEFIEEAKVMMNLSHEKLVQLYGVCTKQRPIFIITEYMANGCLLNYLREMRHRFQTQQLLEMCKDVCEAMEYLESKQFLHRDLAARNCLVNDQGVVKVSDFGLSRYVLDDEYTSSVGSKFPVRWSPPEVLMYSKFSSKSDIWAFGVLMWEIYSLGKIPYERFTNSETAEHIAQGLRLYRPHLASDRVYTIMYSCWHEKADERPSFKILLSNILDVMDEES
T1 sequence (P35991 whole entry): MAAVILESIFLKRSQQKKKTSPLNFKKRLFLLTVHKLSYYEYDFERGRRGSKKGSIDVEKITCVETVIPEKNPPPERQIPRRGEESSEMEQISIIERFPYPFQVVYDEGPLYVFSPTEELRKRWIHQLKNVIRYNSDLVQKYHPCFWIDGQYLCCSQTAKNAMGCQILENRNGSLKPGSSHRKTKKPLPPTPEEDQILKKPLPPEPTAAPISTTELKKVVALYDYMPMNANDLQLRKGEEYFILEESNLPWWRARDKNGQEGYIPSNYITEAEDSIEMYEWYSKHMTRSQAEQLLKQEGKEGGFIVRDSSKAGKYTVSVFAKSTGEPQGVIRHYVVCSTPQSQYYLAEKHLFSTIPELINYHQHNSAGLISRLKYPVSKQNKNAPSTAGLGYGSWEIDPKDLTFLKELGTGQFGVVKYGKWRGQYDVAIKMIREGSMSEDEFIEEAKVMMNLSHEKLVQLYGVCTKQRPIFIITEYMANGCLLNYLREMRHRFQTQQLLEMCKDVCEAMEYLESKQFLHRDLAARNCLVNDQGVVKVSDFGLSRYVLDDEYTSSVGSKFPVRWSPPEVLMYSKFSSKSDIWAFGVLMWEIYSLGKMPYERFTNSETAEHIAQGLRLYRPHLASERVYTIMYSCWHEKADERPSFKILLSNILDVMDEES

C=CC(=O)N(C)CCOc1c(N)ncnc1-c1cc(F)cc(NC(=O)c2ccc(C3CC3)cc2F)c1C [Compound (I), N-(3-(6-Amino-5-(2-(N-methylacrylamido)ethoxy)pyrimidin-4-yl)-5-fluoro-2-methylphenyl)-4-cyclopropyl-2-fluorobenzamide]
receptor occupancy at 3 mg/kg (BTK [1]; 3 mg/kg): 68.1%
receptor occupancy at 10 mg/kg (BTK [1]; 10 mg/kg): 82.1%
receptor occupancy at 30 mg/kg (BTK [1]; 30 mg/kg): 91.3%
receptor occupancy at 100 mg/kg (BTK [1]; 100 mg/kg): 99.3%
time between dosing and Arthus trigger at which the effect reached baseline ([2]; single dose): ≥ 45 h
inhibition of skin swelling ([2]; single oral dose 3 mg/kg 2 hours prior to induction): 22.9 % inhibition
inhibition of skin swelling ([2]; single oral dose 10 mg/kg 2 hours prior to induction): 29.2 % inhibition
inhibition of skin swelling ([2]; single oral dose 30 mg/kg 2 hours prior to induction): 73.0 % inhibition
inhibition of skin swelling ([2]; single oral dose 100 mg/kg 2 hours prior to induction): 61.2 % inhibition
inhibition of wheal size in SPT [3]: minimal inhibition
spleen BTK occupancy (BTK [4]; female rats, single oral dose 3 mg/kg): full
BTK occupancy half-life in spleen (BTK [4]; rat spleen, single oral dose, estimated): approximately 5 hours
BTK occupancy half-life in blood (BTK [4]; rats, single oral dose): approximately 87 hours

From patent US12419889B2, “Methods of treating chronic spontaneous urticaria using a bruton's tyrosine kinase inhibitor” (NOVARTIS AG, priority 2019, dated 2025)
